Here are results for eight compounds from patent US7189524B1, “Receptor ligands and methods of modulating receptors” (Amgen, Inc., priority 2002, dated 2007).

T1 sequence (Q8TDS4 whole entry): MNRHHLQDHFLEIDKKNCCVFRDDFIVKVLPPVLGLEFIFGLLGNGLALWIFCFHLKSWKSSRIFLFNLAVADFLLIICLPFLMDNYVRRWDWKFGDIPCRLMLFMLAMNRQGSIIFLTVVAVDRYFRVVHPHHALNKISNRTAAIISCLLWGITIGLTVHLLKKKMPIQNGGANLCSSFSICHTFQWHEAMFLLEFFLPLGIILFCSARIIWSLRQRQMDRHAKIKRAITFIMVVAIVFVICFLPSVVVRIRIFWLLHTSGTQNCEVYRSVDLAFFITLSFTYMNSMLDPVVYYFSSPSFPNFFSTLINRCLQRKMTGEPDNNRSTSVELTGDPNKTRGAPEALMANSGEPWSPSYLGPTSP

One assay deals with TGR183 (Homo sapiens, UniProt Q9BXC0).
TGR183, sequence (Q9BXC0 whole entry): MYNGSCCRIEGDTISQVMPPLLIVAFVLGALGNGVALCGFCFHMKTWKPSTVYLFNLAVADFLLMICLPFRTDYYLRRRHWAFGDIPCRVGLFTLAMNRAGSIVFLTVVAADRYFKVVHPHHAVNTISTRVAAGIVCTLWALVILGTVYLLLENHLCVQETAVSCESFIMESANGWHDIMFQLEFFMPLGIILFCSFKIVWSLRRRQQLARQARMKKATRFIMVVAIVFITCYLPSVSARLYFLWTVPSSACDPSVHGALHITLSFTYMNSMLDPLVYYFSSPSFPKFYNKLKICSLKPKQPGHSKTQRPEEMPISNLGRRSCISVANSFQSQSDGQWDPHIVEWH
Assay: not given
Conditions: concentration of 50 μM, FIG. 3. The method, then: (§1) Aequorin catalyses the oxidation of coelenterazine, but only in the presence of Ca^2+ ions and thus can be used as an indicator of intracellular calcium levels. Briefly, the assays were performed using the following methodology.
(§2) CHO cells were transiently transfected with expression plasmids encoding TGR4b or TGR183 together with a plasmid encoding mitochondria-targeting apoaequorin. The plasmids were co-transfected with chimeric G protein Gαqi9, which has the C-terminal 9 amino acids from the Gαq protein replaced with the C-terminal 9 amino acids form the Gαi protein. Cells were harvested 24 hr later and loaded with coelenterazine for 2 hr at 37 C. Aequorin assay was performed on MicroLumat 96 luminometer (Perkin Elmer).
For the compound `O=C(O)c1cccnc1` [nicotinic acid, 3-pyridinecarboxylic acid], the “TGR183-mediated increase in intracellular calcium” value is on record as “stimulated a TGR183-mediated increase in intracellular calcium”.

The next assay relates to human adipocytes. Description: Inhibition of forskolin-stimulated lipolysis of human adipocytes (glycerol release). Type of assay: cell-based. Conditions: Adipocyte, 0.5 μM Forskolin, 16 hours, glycerol concentration, read-out: EC50 (anti-lipolysis).
Regarding `Cc1cnc(C(=O)O)c[n+]1[O-]`, the half-maximal effective concentration (EC50) worked out at 6 µM.

`O=C(O)c1cnccn1` [2-pyrazinecarboxylic acid]: the EC50 amounted to 6.5 µM.

In the case of `Cl.O=C(O)Cc1cccnc1` [3-pyridineacetic acid HCl], the half-maximal effective concentration (EC50) was 0.77 µM.

Consider `O=C(O)c1ccnnc1` [Pyridazine 4-carboxylic acid], for which the EC50 amounted to 2.8 µM.

As to `O=C(O)c1cccnc1` [nicotinic acid, 3-pyridinecarboxylic acid], the EC50 stood at 0.062 µM.

In the case of `Cl.O=C(Cl)c1cccnc1` [nicotinoyl chloride HCl], the EC50 is 0.15 µM.

The next assay has as its target T1, TGR4b (Homo sapiens, UniProt Q8TDS4).
T1 construct: expressed in transfected cells; host or cells: CHO cells, transient
Description: Aequorin assay for intracellular calcium, CHO cells transfected with TGR4b. Conditions: summary of Table 1. Type of assay: cell-based. The method, then: as §1, §2
`O=C(O)c1cnccn1` [2-pyrazinecarboxylic acid]: the “activity on TGR4b in words (binding and activity assays)” value (“activity on TGR4b in words” below) was “also active in binding and activity assays”.

Consider `Cl.O=C(O)Cc1cccnc1` [3-pyridineacetic acid HCl], for which the “activity on TGR4b in words” value is recorded as “also exhibits activity”.

Take `O=C(O)c1cncc(F)c1` [5-fluoro nicotinic acid]: the “activity on TGR4b in words” value was “much lower potency”.

For the compound `NC(=O)c1cccnc1` [Nicotinamide], the “activity on TGR4b in words” value is “completely inactive”.

Consider `O=C(O)c1ccnnc1` [Pyridazine 4-carboxylic acid], for which the “activity on TGR4b in words” value was “also active in binding and activity assays”.

With `Cl.O=C(Cl)c1cccnc1` [nicotinoyl chloride HCl], the “activity on TGR4b in words” value was “agonist and binding activity similar to that of nicotinic acid”.
